According to patent US20250270209A1 (INTERLINE THERAPEUTICS, INC., priority 2022, published 2025):

How the values were obtained:
[1] = molecular target: T1, wild type LRRK2 overexpressed in recombinant HEK-293T cells (Homo sapiens, UniProt Q5S007); test: pS935 LRRK2 Cell Assay (HTRF, phospho-LRRK2 Ser935); assay type: cell-based; settings: LRRK2 Inhibition, Table 8, 2 hours compound incubation
T1 construct: host or cells: HEK293T (transient transfection with pCMV-LRRK2 WT plasmid)
Method in brief: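 Phospho-Ser935 LRRK2 measured by two-antibody HTRF (Eu-cryptate donor, d2 acceptor; 665/615 nm ratio) after overnight detection at 23° C. Before lysis, transiently LRRK2-transfected HEK-293T cells were exposed 2 h at 37° C to a 9-point, 3-fold series from 10 μM, with DMSO at 0.2%.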

LRRK2 wild type enzyme = LRRK2 wild type enzyme (Homo sapiens, UniProt Q5S007); test: Biochemical Assay: LRRK2 TR-FRET (LanthaScreen) kinase assay with LRRKtide substrate; settings: LRRK2 Inhibition, Table 8
Method in brief: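 TR-FRET detection (Tb-labelled phospho-LRRKtide antibody, EDTA stop, 30 min) followed a 120 min, 23 °C reaction of 3 nM wild-type human LRRK2 with LRRKtide (400 nM) and ATP (25 μM) in Tris pH 8.0. Compounds: 11-point 3-fold series from 10 μM, 15 min enzyme preincubation.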

LRRK2 wild type enzyme, sequence (Q5S007 whole entry): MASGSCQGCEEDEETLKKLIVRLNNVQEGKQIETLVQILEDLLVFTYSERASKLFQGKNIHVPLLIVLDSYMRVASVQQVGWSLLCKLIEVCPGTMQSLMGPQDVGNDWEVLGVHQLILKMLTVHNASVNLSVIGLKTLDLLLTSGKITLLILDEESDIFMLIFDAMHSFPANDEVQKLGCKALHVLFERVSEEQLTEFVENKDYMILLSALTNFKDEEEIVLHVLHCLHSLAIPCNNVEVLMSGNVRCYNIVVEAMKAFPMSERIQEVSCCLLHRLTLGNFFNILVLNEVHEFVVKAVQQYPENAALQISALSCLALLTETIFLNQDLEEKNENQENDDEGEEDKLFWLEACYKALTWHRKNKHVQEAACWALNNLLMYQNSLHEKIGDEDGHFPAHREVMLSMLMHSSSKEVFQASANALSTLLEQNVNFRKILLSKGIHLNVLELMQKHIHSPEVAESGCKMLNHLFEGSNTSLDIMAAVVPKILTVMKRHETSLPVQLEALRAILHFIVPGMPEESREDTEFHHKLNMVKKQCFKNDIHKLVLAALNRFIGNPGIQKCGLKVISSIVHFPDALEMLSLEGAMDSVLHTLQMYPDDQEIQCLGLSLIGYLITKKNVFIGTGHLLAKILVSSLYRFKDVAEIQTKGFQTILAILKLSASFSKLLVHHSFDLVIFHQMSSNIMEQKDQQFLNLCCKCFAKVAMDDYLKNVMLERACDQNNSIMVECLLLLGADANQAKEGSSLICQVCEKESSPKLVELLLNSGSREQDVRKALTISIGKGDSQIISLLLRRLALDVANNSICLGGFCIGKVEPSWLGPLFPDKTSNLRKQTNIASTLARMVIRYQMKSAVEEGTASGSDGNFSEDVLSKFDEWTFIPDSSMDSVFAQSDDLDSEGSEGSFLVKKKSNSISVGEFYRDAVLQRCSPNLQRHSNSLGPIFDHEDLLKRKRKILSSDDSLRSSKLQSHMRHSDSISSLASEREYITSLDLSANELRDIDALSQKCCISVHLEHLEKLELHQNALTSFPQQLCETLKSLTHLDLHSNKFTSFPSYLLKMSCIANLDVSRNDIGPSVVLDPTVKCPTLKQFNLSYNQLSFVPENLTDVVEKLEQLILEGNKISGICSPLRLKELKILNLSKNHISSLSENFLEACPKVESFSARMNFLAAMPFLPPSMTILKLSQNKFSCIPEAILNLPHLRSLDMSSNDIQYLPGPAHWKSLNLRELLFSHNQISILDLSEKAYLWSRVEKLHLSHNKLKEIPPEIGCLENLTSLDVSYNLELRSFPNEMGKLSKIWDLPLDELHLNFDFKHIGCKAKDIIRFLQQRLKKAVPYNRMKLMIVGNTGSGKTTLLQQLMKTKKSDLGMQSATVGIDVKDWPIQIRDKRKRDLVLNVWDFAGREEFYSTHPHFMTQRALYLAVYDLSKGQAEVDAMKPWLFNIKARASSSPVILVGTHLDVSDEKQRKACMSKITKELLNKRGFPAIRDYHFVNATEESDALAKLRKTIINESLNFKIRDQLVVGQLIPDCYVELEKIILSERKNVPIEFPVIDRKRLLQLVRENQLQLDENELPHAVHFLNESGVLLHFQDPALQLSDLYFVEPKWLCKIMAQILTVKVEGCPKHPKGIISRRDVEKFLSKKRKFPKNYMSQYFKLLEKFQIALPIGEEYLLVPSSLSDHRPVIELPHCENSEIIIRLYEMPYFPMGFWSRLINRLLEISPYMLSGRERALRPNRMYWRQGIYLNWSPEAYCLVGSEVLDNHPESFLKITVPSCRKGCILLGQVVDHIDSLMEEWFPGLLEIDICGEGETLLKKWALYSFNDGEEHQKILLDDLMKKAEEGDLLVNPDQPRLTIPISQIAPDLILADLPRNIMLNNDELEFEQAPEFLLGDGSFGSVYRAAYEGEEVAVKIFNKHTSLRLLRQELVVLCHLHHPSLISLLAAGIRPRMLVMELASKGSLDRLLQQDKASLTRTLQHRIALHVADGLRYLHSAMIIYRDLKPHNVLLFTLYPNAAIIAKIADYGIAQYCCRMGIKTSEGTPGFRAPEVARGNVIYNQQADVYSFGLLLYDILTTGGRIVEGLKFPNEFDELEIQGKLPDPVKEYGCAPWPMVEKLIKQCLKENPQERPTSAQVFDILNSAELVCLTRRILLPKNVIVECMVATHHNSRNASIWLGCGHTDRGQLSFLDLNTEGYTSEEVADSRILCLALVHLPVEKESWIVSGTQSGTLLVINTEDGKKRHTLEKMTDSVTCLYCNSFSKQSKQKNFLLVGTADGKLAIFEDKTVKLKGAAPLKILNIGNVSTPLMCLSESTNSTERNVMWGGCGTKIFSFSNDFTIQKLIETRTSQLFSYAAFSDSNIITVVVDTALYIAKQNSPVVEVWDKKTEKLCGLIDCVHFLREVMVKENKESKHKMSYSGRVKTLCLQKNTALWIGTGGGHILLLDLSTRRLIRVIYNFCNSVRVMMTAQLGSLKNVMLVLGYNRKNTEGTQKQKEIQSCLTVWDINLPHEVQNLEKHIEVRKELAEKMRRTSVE
T1 sequence (Q5S007 whole entry): as above

| SMILES | IC50 [1] [nM] | IC50 (LRRK2 wild type enzyme) [nM] |
| --- | --- | --- |
| C[C@@H]1C[C@H](n2c(CC(=O)Nc3ccc(=O)n(C)c3)nc3cnc4ccc(Cl)cc4c32)CCO1 [Compound 219, N-(1-methyl-6-oxo-1,6-dihydro-3-pyridyl){3-[(2R,4R)-2-methyltetrahydro-2H-pyran-4-yl]-12-chloro-3,5,8-triazatricyclo[7.4.0.0^2,6]trideca-1,4,6,8,10,12-hexaen-4-yl}acetamide] | 15.8 | 0.232 |
| C[C@@H]1C[C@H](n2c(CC(=O)Nc3ccc(F)nc3)nc3cnc4ccc(C#N)cc4c32)CCO1 [Compound 299, N-(6-fluoro-3-pyridyl){3-[(2R,4R)-2-methyltetrahydro-2H-pyran-4-yl]-12-cyano-3,5,8-triazatricyclo[7.4.0.0^2,6]trideca-1,4,6,8,10,12-hexaen-4-yl}acetamide] | 10.5 | 0.387 |
| COc1cc(C)ncc1NC(=O)Cc1nc2cnc3ccc(C#N)cc3c2n1[C@@H]1CCO[C@H](C)C1 [Compound 226, N-(4-methoxy-6-methyl-3-pyridyl){3-[(2R,4R)-2-methyltetrahydro-2H-pyran-4-yl]-12-cyano-3,5,8-triazatricyclo[7.4.0.0^2,6]trideca-1,4,6,8,10,12-hexaen-4-yl}acetamide] | 5.44 | 0.461 |
| CCc1ncc(NC(=O)Cc2nc3cnc4ccc(C#N)cc4c3n2[C@@H]2CCO[C@H](C)C2)cn1 [Compound 262, N-(2-ethyl-5-pyrimidinyl){3-[(2R,4R)-2-methyltetrahydro-2H-pyran-4-yl]-12-cyano-3,5,8-triazatricyclo[7.4.0.0^2,6]trideca-1,4,6,8,10,12-hexaen-4-yl}acetamide] | 18.2 | 0.467 |
| C[C@@H]1C[C@H](n2c(CC(=O)N[C@@H]3C[C@H]3F)nc3cnc4ccc(C#N)cc4c32)CCO1 [Compound 277, N-[(1R,2R)-2-fluorocyclopropyl]{3-[(2R,4R)-2-methyltetrahydro-2H-pyran-4-yl]-12-cyano-3,5,8-triazatricyclo[7.4.0.0^2,6]trideca-1(13),2(6),4,7,9,11-hexaen-4-yl}acetamide] | 52.2 | 0.828 |
| Cc1cc(NC(=O)Cc2nc3cnc4ccc(C#N)cc4c3n2[C@@H]2CCO[C@H](C)C2)no1 [Compound 156, 2-{8-cyano-1-[(2R,4R)-2-methyloxan-4-yl]-1H-imidazo[4,5-c]quinolin-2-yl}-N-(5-methyl-1,2-oxazol-3-yl)acetamide] | 6.83 | 0.529 |
| C[C@@H]1C[C@H](n2c([C@@H]3CN(CC4CC4)C(=O)O3)nc3cnc4ccc(C#N)cc4c32)CCO1 [Compound 37, 2-[(5S)-3-(cyclopropylmethyl)-2-oxo-1,3-oxazolidin-5-yl]-1-[(2R,4R)-2-methyloxan-4-yl]-1H-imidazo[4,5-c]quinoline-8-carbonitrile] | 3700 | 53.1 |
| C[C@@H]1C[C@H](n2c(CNS(C)(=O)=O)nc3cnc4ccc(C#N)cc4c32)CCO1 [Compound 21, N-({8-cyano-1-[(2R,4R)-2-methyloxan-4-yl]-1H-imidazo[4,5-c]quinolin-2-yl}methyl)methanesulfonamide] | 641 | 5.18 |
| C[C@@H]1C[C@H](n2c(CC(=O)NCc3ccccn3)nc3cnc4ccc(C#N)cc4c32)CCO1 [Compound 86, 2-{8-cyano-1-[(2R,4R)-2-methyloxan-4-yl]-1H-imidazo[4,5-c]quinolin-2-yl}-N-[(pyridin-2-yl)methyl]acetamide] | 7.12 | 0.422 |
| C[C@@H]1C[C@H](n2c(CC(=O)Nc3ccnn(C)c3=O)nc3cnc4ccc(C#N)cc4c32)CCO1 [Compound 215, N-(2-methyl-3-oxo-2,3-dihydro-4-pyridazinyl){3-[(2R,4R)-2-methyltetrahydro-2H-pyran-4-yl]-12-cyano-3,5,8-triazatricyclo[7.4.0.0^2,6]trideca-1,4,6,8,10,12-hexaen-4-yl}acetamide] | 5.85 | 0.438 |
| C[C@@H]1C[C@H](n2c(CC(=O)Nc3cccnc3C#N)nc3cnc4ccc(C#N)cc4c32)CCO1 [Compound 272, N-(2-cyano-3-pyridyl){3-[(2R,4R)-2-methyltetrahydro-2H-pyran-4-yl]-12-cyano-3,5,8-triazatricyclo[7.4.0.0^2,6]trideca-1,4,6,8,10,12-hexaen-4-yl}acetamide] | 12.5 | 0.549 |
| Cc1cc(CNC(=O)Cc2nc3cnc4ccc(C#N)cc4c3n2[C@@H]2CCO[C@H](C)C2)no1 [Compound 176, 2-{8-cyano-1-[(2R,4R)-2-methyloxan-4-yl]-1H-imidazo[4,5-c]quinolin-2-yl}-N-[(5-methyl-1,2-oxazol-3-yl)methyl]acetamide] | 5.56 | 0.323 |
| C[C@@H]1C[C@H](n2c(CC(=O)Nc3cn(C)c(C(F)(F)F)cc3=O)nc3cnc4ccc(C#N)cc4c32)CCO1 [Compound 232, N-[1-methyl-4-oxo-6-(trifluoromethyl)-1,4-dihydro-3-pyridyl]{3-[(2R,4R)-2-methyltetrahydro-2H-pyran-4-yl]-12-cyano-3,5,8-triazatricyclo[7.4.0.0^2,6]trideca-1,4,6,8,10,12-hexaen-4-yl}acetamide] | 36.9 | 0.788 |
| COc1ncc(NC(=O)Cc2nc3cnc4ccc(C#N)cc4c3n2[C@@H]2CCO[C@H](C)C2)c(OC)n1 [Compound 295, N-(2,4-dimethoxy-5-pyrimidinyl){3-[(2R,4R)-2-methyltetrahydro-2H-pyran-4-yl]-12-cyano-3,5,8-triazatricyclo[7.4.0.0^2,6]trideca-1,4,6,8,10,12-hexaen-4-yl}acetamide] | 4.67 | 0.455 |
| C[C@@H]1C[C@H](n2c([C@@H]3CCN(S(C)(=O)=O)C3)nc3cnc4ccc(C#N)cc4c32)CCO1 [Compound 38, 2-[(3R)-1-methanesulfonylpyrrolidin-3-yl]-1-[(2R,4R)-2-methyloxan-4-yl]-1H-imidazo[4,5-c]quinoline-8-carbonitrile] | 772 | 7.3 |
| CC1CC(n2c(CC3CNC3)nc3cnc4ccc(C#N)cc4c32)CCO1 (centres unmarked) [Compound 70, 2-[(azetidin-3-yl)methyl]-1-(2-methyloxan-4-yl)-1H-imidazo[4,5-c]quinoline-8-carbonitrile] | 3680 | 9.07 |
| C[C@@H]1C[C@H](n2c(CC(=O)Nc3cnccn3)nc3cnc4ccc(Cl)cc4c32)CCO1 [Compound 371, N-2-pyrazinyl{3-[(2R,4R)-2-methyltetrahydro-2H-pyran-4-yl]-12-chloro-3,5,8-triazatricyclo[7.4.0.0^2,6]trideca-1(9),2(6),4,7,10,12-hexaen-4-yl}acetamide] | 5 | 1.13 |
| C[C@@H]1C[C@H](n2c(CC(=O)NC3(C)CCOC3)nc3cnc4ccc(Cl)cc4c32)CCO1 (stereo partly drawn) [Compound 333, N-(3-methyltetrahydro-3-furyl){3-[(2R,4R)-2-methyltetrahydro-2H-pyran-4-yl]-12-chloro-3,5,8-triazatricyclo[7.4.0.0^2,6]trideca-1(9),2(6),4,7,10,12-hexaen-4-yl}acetamide] | 30.7 | 1.27 |
| C[C@@H]1C[C@H](n2c(CC(=O)Nc3cn(C)ccc3=O)nc3cnc4ccc(C#N)cc4c32)CCO1 [Compound 234, N-(1-methyl-4-oxo-1,4-dihydro-3-pyridyl){3-[(2R,4R)-2-methyltetrahydro-2H-pyran-4-yl]-12-cyano-3,5,8-triazatricyclo[7.4.0.0^2,6]trideca-1,4,6,8,10,12-hexaen-4-yl}acetamide] | 407 | 0.659 |
| C[C@@H]1C[C@H](n2c(CC(=O)Nc3cncc(C#N)c3)nc3cnc4ccc(C#N)cc4c32)CCO1 [Compound 284, N-(5-cyano-3-pyridyl){3-[(2R,4R)-2-methyltetrahydro-2H-pyran-4-yl]-12-cyano-3,5,8-triazatricyclo[7.4.0.0^2,6]trideca-1,4,6,8,10,12-hexaen-4-yl}acetamide] | 20 | 0.538 |
| C[C@@H]1C[C@H](n2c(CNC(=O)c3cnn(C)c3)nc3cnc4ccc(C#N)cc4c32)CCO1 [Compound 20, N-({8-cyano-1-[(2R,4R)-2-methyloxan-4-yl]-1H-imidazo[4,5-c]quinolin-2-yl}methyl)-1-methyl-1H-pyrazole-4-carboxamide] | 224 | 1.83 |
| C[C@@H]1C[C@H](n2c(CC(=O)NC3CC3(F)F)nc3cnc4ccc(C#N)cc4c32)CCO1 (stereo partly drawn) [Compound 288, N-2,2-difluorocyclopropyl{3-[(2R,4R)-2-methyltetrahydro-2H-pyran-4-yl]-12-cyano-3,5,8-triazatricyclo[7.4.0.0^2,6]trideca-1,4,6,8,10,12-hexaen-4-yl}acetamide] | 39 | 0.642 |
| CC(C(=O)NCC1CC1)c1nc2cnc3ccc(C#N)cc3c2n1[C@@H]1CCO[C@H](C)C1 (stereo partly drawn) [Compound 369, N-cyclopropylmethyl2-{3-[(2R,4R)-2-methyltetrahydro-2H-pyran-4-yl]-12-cyano-3,5,8-triazatricyclo[7.4.0.0^2,6]trideca-1(13),2(6),4,7,9,11-hexaen-4-yl}propionamide] | 801 | 13.8 |
| C[C@@H]1C[C@H](n2c(CC(=O)NCCc3ccccn3)nc3cnc4ccc(C#N)cc4c32)CCO1 [Compound 366, N-[2-(2-pyridyl)ethyl]{3-[(2R,4R)-2-methyltetrahydro-2H-pyran-4-yl]-12-cyano-3,5,8-triazatricyclo[7.4.0.0^2,6]trideca-1,4,6,8,10,12-hexaen-4-yl}acetamide] | 28.4 | 0.587 |
| C[C@@H]1C[C@H](n2c(CNc3ncco3)nc3cnc4ccc(C#N)cc4c32)CCO1 [Compound 11, 1-[(2R,4R)-2-methyloxan-4-yl]-2-{[(1,3-oxazol-2-yl)amino]methyl}-1H-imidazo[4,5-c]quinoline-8-carbonitrile] | 609 | 4.23 |
